Source: EP0099122A2, “Compositions comprising pepstatin and an histamine H2-receptor antagonist having an enhanced antiulcer activity” (Bristol-Myers Company, priority 1982, dated 1984)
Marks after values point to notes of the source that are not given here.

Test system: Heidenhain Pouch Dog
Assay: Gastric antisecretory activity in the Heidenhain Pouch Dog
Format: in vivo, dogs
Details: 95% confidence limits in parentheses; for ED50: Canis lupus familiaris
Protocol: Determination of Gastric Antisecretory […] in the Heidenhain Pouch Dog Prior to surgery, hematology and blood chemistry profiles are obtained and an assessment made as to the general health of selected female dogs. Dogs are vaccinated with Tissue […]-Moore) and housed in general animal quarters for four weeks' observation so incipient diseases may become apparent. Dogs are fasted with water ad libitum 24 hours prior to surgery. […] Subsequent anesthesia is maintained with methoxy- flurane (Pitman-Moore). A mid-line linea alba incision from xiphoid to umbilicus provides good exposure and ease of closure. The stomach is pulled up into the operative fields the greater curvature stretched out at multiple points and clamps placed along the selected line of incision. The pouch is made from the corpus of the stomach so that true parietal cell juice is obtained. About 30% of the corpus volume is resected. The cannula is made of light-weight, biologically-inert material such as nylon or Delrin with dimensions and attachments after DeVito and […] fJ. Appl. Physiol., 14, 138 (1959)]. Post operatively, dogs are medicated with antibiotics and an analgesic. They are allowed 2-3 months for recovery. Experiments are carried out in the following way: […] The dogs are placed in a sling and a saphenous vein cannulated for drug administration. Histamine as the base (100 μg/kg/hr) and chlorpheniramine maleate (0.25 mg/kg/hr) are infused continuously (in a volume of 6 mL/hr) with a Harvard infusion pump. Ninety minutes' infusion are allowed for the dogs to reach a steady state of acid output. At this time the drug or normal saline (control) is administered concomitantly with the secretagogue in a volume of 0.5 mL/kg over a 30 second period. When oral studies are to be carried out, the drug is administered via gastric gavage in a volume of 5 mL/kg. Infusion of the secretagogue is continued and 15 minute samples of the gastric juice are taken for 4.5 hours. Each sample is measured to the nearest 0.5 mL and titratable acidity is determined by titrating a 1 mL sample to pH 7.0 with 0.2N NaOH, using an Autoburet and an electrometric pH meter '(Radiometer). Titratable acid output is calculated in microequivalents by multiplying the volume in milliliters by the acid concentration in milliequivalents per liter. Results are expressed as percent inhibition relative to control readings. Dose response curves are constructed and ED50 values are calculated by regression analyses. From 3 to 5 dogs are used at each dose level and a minimum of three dosage levels are utilized for determination of a dose response curve.

## Nc1c(NCCCOc2cccc(CN3CCCCC3)c2)c(=O)c1=O [Example 1]
INTRAVENOUS
  ED50: 0.024 µmol/kg
  Potency Ratio [cimetidine = 1.0]: 87 (62-117)*
ORAL
  ED50: 0.16 µmol/kg
  Potency Ratio [cimetidine = 1.0]: 25 (14-40)
